Experimental data reported in US11319299B2, “Substituted carboxamides as inhibitors of WDR5 protein-protein binding” (PROPELLON THERAPEUTICS INC., priority 2016, dated 2022).

Target: WDR5 (Homo sapiens (Human), UniProt P61964)
Experiment: Surface Plasmon Resonance (SPR) assay, KD and residence time
Format: binding
Settings: surface plasmon resonance (SPR); read-out: WDR5 binding affinity (KD)

Structure (SMILES)	Kd [nM]
C[C@@H]1CN(c2ncc(-c3cc(NC(=O)c4cn(C)c(=O)cc4C(F)(F)F)c(N4CCN(C)[C@H](C)C4)cc3F)cn2)CCO1 (stereo in doubt) [Example 450, N-[4-fluoro-2-[(3R)-3,4-dimethylpiperazin-1-yl]-5-[2-[(2R)-2-methylmorpholin-4-yl]pyrimidin-5-yl]phenyl]-1-methyl-6-oxo-4-(trifluoromethyl)pyridine-3-carboxamide]	1.02
CC1CN(c2ncc(-c3cc(NC(=O)c4ccc(F)cc4C(F)(F)F)c(N4C[C@@H](C)N(C)[C@@H](C)C4)cc3F)cn2)CCO1 (stereo in doubt) [Example 453, 4-fluoro-N-[4-fluoro-5-[2-[(2R)-2-methylmorpholin-4-yl]pyrimidin-5-yl]-2-[(3S,5R)-3,4,5-trimethylpiperazin-1-yl]phenyl]-2-(trifluoromethyl)benzamide]	0.822
O=C(Nc1cc(-c2cnc(N3CCOCC3)nc2)c(F)cc1N1C[C@H]2CCN[C@H]2C1)c1c[nH]c(=O)cc1C(F)(F)F (stereo in doubt) [Example 463, N-[4-fluoro-5-(2-morpholin-4-ylpyrimidin-5-yl)-2-[(3aR,6aR)-2,3,3a,4,6,6a-hexahydro-1H-pyrrolo[2,3-c]pyrrol-5-yl]phenyl]-6-oxo-4-(trifluoromethyl)-1H-pyridine-3-carboxamide]	168
CC1COCCN1c1ncc(-c2cc(NC(=O)c3cn(C)c(=O)cc3C(F)F)c(N3C[C@@H](C)N(C)[C@@H](C)C3)cc2F)cn1 (stereo in doubt) [Example 475, 4-(difluoromethyl)-N-[4-fluoro-5-[2-[(3R)-3-methylmorpholin-4-yl]pyrimidin-5-yl]-2-[(3S,5R)-3,4,5-trimethylpiperazin-1-yl]phenyl]-1-methyl-6-oxopyridine-3-carboxamide]	3.52
CCCN1CC[C@@H]2CN(c3cc(F)c(-c4cnc(N5CCOCC5)nc4)cc3NC(=O)c3c[nH]c(=O)cc3C(F)(F)F)C[C@@H]21 (stereo in doubt) [Example 476, N-[4-fluoro-5-(2-morpholin-4-ylpyrimidin-5-yl)-2-[(3aR,6aR)-1-propyl-2,3,3a,4,6,6a-hexahydropyrrolo[2,3-c]pyrrol-5-yl]phenyl]-6-oxo-4-(trifluoromethyl)-1H-pyridine-3-carboxamide]	9.71
CN1CC[C@@H]2CN(c3cc(F)c(-c4cnc(N5CCOCC5)nc4)cc3NC(=O)c3c[nH]c(=O)cc3C(F)(F)F)C[C@@H]21 (stereo in doubt) [Example 477, N-[4-fluoro-5-(2-morpholin-4-ylpyrimidin-5-yl)-2-[(3aR,6aR)-1-methyl-2,3,3a,4,6,6a-hexahydropyrrolo[2,3-c]pyrrol-5-yl]phenyl]-6-oxo-4-(trifluoromethyl)-1H-pyridine-3-carboxamide]	24.2
CC1CN(c2cc(F)c(-c3ccc(N4CCOCC4)c(F)c3)cc2NC(=O)c2cn(C)c(=O)cc2C(F)F)CCN1C (stereo in doubt) [Example 478, 4-(difluoromethyl)-N-[4-fluoro-5-(3-fluoro-4-morpholin-4-ylphenyl)-2-[(3R)-3,4-dimethylpiperazin-1-yl]phenyl]-1-methyl-6-oxopyridine-3-carboxamide]	5.32
CC1CN(c2cc(F)c(-c3cnc(N4CCOCC4)nc3)cc2NC(=O)c2c[nH]c(=O)c(C(F)(F)F)c2)CCN1C (stereo in doubt) [Example 495, N-[4-fluoro-5-(2-morpholin-4-ylpyrimidin-5-yl)-2-[(3R)-3,4-dimethylpiperazin-1-yl]phenyl]-6-oxo-5-(trifluoromethyl)-1H-pyridine-3-carboxamide]	24.9
C[C@@H]1CN(c2ccc(-c3cc(NC(=O)c4c[nH]c(=O)cc4C(F)F)c(N4CCN(C)[C@H](C)C4)cc3F)cn2)CCO1 (stereo in doubt) [Example 507, 4-(difluoromethyl)-N-[4-fluoro-2-[(3R)-3,4-dimethylpiperazin-1-yl]-5-[6-[(2R)-2-methylmorpholin-4-yl]pyridin-3-yl]phenyl]-6-oxo-1H-pyridine-3-carboxamide]	1.76
CC1CN(c2ccc(-c3cc(NC(=O)c4c[nH]c(=O)cc4C(F)F)c(N4C[C@@H](C)N(C)[C@@H](C)C4)cc3F)cn2)CCO1 (stereo in doubt) [Example 510, 4-(difluoromethyl)-N-[4-fluoro-5-[6-[(2R)-2-methylmorpholin-4-yl]pyridin-3-yl]-2-[(3S,5R)-3,4,5-trimethylpiperazin-1-yl]phenyl]-6-oxo-1H-pyridine-3-carboxamide]	0.623
CC1CN(c2ccc(-c3cc(NC(=O)c4cn(C)c(=O)cc4C(F)F)c(N4C[C@@H](C)N(C)[C@@H](C)C4)cc3F)cn2)CCO1 (stereo in doubt) [Example 517, 4-(Difluoromethyl)-N-[4-fluoro-5-[6-[(2R)-2-methylmorpholin-4-yl]pyridin-3-yl]-2-[(3S,5R)-3,4,5-trimethylpiperazin-1-yl]phenyl]-1-methyl-6-oxopyridine-3-carboxamide]	5.97
C[C@@H]1CN(c2ccc(-c3cc(NC(=O)c4cn(C)c(=O)cc4C(F)F)c(N4CCN(C)[C@H](C)C4)cc3F)cn2)CCO1 (stereo in doubt) [Example 519, 4-(difluoromethyl)-N-[4-fluoro-2-[(3R)-3,4-dimethylpiperazin-1-yl]-5-[6-[(2R)-2-methylmorpholin-4-yl]pyridin-3-yl]phenyl]-1-methyl-6-oxopyridine-3-carboxamide]	3.39
CC1CN(c2cc(F)c(-c3ccc(N4CCNCC4)nc3)cc2NC(=O)c2ccc(F)cc2C(F)(F)F)CCN1C (stereo in doubt) [Example 530, 4-fluoro-N-[4-fluoro-5-(6-piperazin-1-ylpyridin-3-yl)-2-[(3R)-3,4-dimethylpiperazin-1-yl]phenyl]-2-(trifluoromethyl)benzamide]	2.16
CC1CN(c2cc(F)c(-c3ccc(F)c(C(N)=O)c3)cc2NC(=O)c2ccc(F)cc2C(F)(F)F)CCN1C (stereo in doubt) [Example 554, 2-fluoro-5-[2-fluoro-5-[[4-fluoro-2-(trifluoromethyl)benzoyl]amino]-4-[(3R)-3,4-dimethylpiperazin-1-yl]phenyl]benzamide]	5.3
CC1CN(c2cc(F)c(-c3ccc(C(N)=O)c(F)c3)cc2NC(=O)c2ccc(F)cc2C(F)(F)F)CCN1C (stereo in doubt) [Example 555, 2-fluoro-4-[2-fluoro-5-[[4-fluoro-2-(trifluoromethyl)benzoyl]amino]-4-[(3R)-3,4-dimethylpiperazin-1-yl]phenyl]benzamide]	2.94

Next, values leading:

Kd [nM]	Structure (SMILES)
1.09	CC1CN(c2cc(F)c(-c3cnc(N4CCN(C(C)(C)C)CC4)nc3)cc2NC(=O)c2ccc(F)cc2C(F)(F)F)CCN1C (stereo in doubt) [Example 557, N-[5-[2-(4-tert-butylpiperazin-1-yl)pyrimidin-5-yl]-4-fluoro-2-[(3R)-3,4-dimethylpiperazin-1-yl]phenyl]-4-fluoro-2-(trifluoromethyl)benzamide]
3.78	CC1CN(c2cc(F)c(-c3cnc(N4CCOC(C)(C)C4)nc3)cc2NC(=O)c2ccc(F)cc2C(F)(F)F)CCN1C (stereo in doubt) [Example 558, N-[5-[2-(2,2-dimethylmorpholin-4-yl)pyrimidin-5-yl]-4-fluoro-2-[(3R)-3,4-dimethylpiperazin-1-yl]phenyl]-4-fluoro-2-(trifluoromethyl)benzamide]
1.18	CC1CN(c2cc(F)c(-c3ccc(C(N)=O)c(F)c3)cc2NC(=O)c2c[nH]c(=O)cc2C(F)F)CCN1C (stereo in doubt) [Example 595, N-[5-(4-carbamoyl-3-fluorophenyl)-4-fluoro-2-[(3R)-3,4-dimethylpiperazin-1-yl]phenyl]-4-(difluoromethyl)-6-oxo-1H-pyridine-3-carboxamide]
4.03	CC1CN(c2cc(F)c(-c3ccc(F)c(C(N)=O)c3)cc2NC(=O)c2c[nH]c(=O)cc2C(F)F)CCN1C (stereo in doubt) [Example 596, N-[5-(3-carbamoyl-4-fluorophenyl)-4-fluoro-2-[(3R)-3,4-dimethylpiperazin-1-yl]phenyl]-4-(difluoromethyl)-6-oxo-1H-pyridine-3-carboxamide]
0.711	CNC(=O)c1ccc(-c2cc(NC(=O)c3c[nH]c(=O)cc3C(F)F)c(N3CCN(C)C(C)C3)cc2F)cc1F (stereo in doubt) [Example 597, 4-(difluoromethyl)-N-[4-fluoro-5-[3-fluoro-4-(methylcarbamoyl)phenyl]-2-[(3R)-3,4-dimethylpiperazin-1-yl]phenyl]-6-oxo-1H-pyridine-3-carboxamide]
1.51	CNC(=O)c1cc(-c2cc(NC(=O)c3c[nH]c(=O)cc3C(F)F)c(N3CCN(C)C(C)C3)cc2F)ccc1F (stereo in doubt) [Example 598, 4-(difluoromethyl)-N-[4-fluoro-5-[4-fluoro-3-(methylcarbamoyl)phenyl]-2-[(3R)-3,4-dimethylpiperazin-1-yl]phenyl]-6-oxo-1H-pyridine-3-carboxamide]
4.18	CC1CN(c2cc(F)c(-c3nccc(N4CCOCC4)n3)cc2NC(=O)c2c[nH]c(=O)cc2C(F)(F)F)CCN1C (stereo in doubt) [Example 599, N-[4-fluoro-5-(4-morpholin-4-ylpyrimidin-2-yl)-2-[(3R)-3,4-dimethylpiperazin-1-yl]phenyl]-6-oxo-4-(trifluoromethyl)-1H-pyridine-3-carboxamide]
1.53	C[C@@H]1CN(c2cc(F)c(-c3cnc(N4CCOC[C@H]4C)nc3)cc2NC(=O)c2cn(C)c(=O)cc2C(F)F)CCN1C (stereo in doubt) [Example 607, 4-(difluoromethyl)-N-[4-fluoro-2-[(3R)-3,4-dimethylpiperazin-1-yl]-5-[2-[(3R)-3-methylmorpholin-4-yl]pyrimidin-5-yl]phenyl]-1-methyl-6-oxopyridine-3-carboxamide]
1.55	Cc1cc(C(=O)Nc2cc(-c3cnc(N4CCOC(C)C4)nc3)c(F)cc2N2C[C@@H](C)N(C)[C@@H](C)C2)cc(C)c1F (stereo in doubt) [Example 611, 4-fluoro-N-[4-fluoro-5-[2-[(2R)-2-methylmorpholin-4-yl]pyrimidin-5-yl]-2-[(3S,5R)-3,4,5-trimethylpiperazin-1-yl]phenyl]-3,5-dimethylbenzamide]
